Test results taken from patent US7553821B2, “Methods for selectively modulating survivin apoptosis pathways” (Yale University, priority 2000, dated 2009).

Assays:
caspase-9 [1] = assay: Co-immunoprecipitation of survivin and caspase-9 from HeLa cells; type: binding; settings: synchronized HeLa cells entering mitosis 12 h after thymidine release
Method: (§1) Asynchronously growing HeLa cells were transfected with HA-wild type survivin (WT) or HA-survivin(T34A) (T34A), detergent-solubilized after 24 h and immunoprecipitated with an antibody to HA followed by Western blotting with an antibody to caspase-9. Arrow, position of 46 kDa proform caspase-9.
(§2) HeLa cells were transfected with the indicated HA-constructs, synchronized to the G1/S boundary by a 16-h treatment with thymidine and released. Aliquots of the various cultures were immunoprecipitated at the indicated time intervals with an antibody to HA, and immunoblotted with antibodies to caspase-9 or HA. P, pellet; S, supernatant. For all panels, molecular weight markers are indicated on the left.
(§3) Transfection experiments. For transient transfection, HeLa cells in C-6 tissue culture plates (Costar, Cambridge, Mass.) at ˜60-70% confluency, were incubated in 1 ml of serum-free OptiMEM medium (Life Technologies, Gaithersburg, Md.) for 20 min, and transfected with 2.5 μg of the various plasmid cDNAs plus 9 μl Lipofectamine (Life Technologies). After a 5 h incubation at 37° C., the mixture was aspirated and substituted with complete growth medium for 48-72 h. […] Gated GFP-expressing cells were analyzed for DNA content by flow cytometry on a FACSort (Becton Dickinson, San Jose, Calif.) using a Cell Quest software. […]

caspase-9 [2] = biological target: T1, caspase-9 (Homo sapiens, UniProt P55211); assay: as above; type: binding; settings: viable HeLa cells 24 h after transfection
T1 construct: immunoprecipitated with an antibody to HA followed by Western blotting with an antibody to caspase-9; endogenous in cells; host or cells: HeLa
T1 sequence (P55211 1-416): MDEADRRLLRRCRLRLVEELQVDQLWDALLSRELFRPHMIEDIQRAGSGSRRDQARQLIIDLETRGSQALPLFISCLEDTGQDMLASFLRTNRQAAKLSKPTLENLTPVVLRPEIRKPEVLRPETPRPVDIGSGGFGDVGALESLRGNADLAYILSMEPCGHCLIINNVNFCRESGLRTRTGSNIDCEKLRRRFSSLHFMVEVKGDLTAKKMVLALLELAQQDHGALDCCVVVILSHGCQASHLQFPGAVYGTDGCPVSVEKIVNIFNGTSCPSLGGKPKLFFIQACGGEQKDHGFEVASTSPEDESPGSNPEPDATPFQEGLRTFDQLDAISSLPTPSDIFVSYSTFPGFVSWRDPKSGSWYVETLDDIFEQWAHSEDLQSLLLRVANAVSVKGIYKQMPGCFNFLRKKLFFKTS
Method: as §1, §2, §3

Substance: survivin(T34A): dominant-negative, non-phosphorylatable survivin mutant with Thr34→Ala substitution, expressed from transfected cDNA (also HA- or GFP-tagged)
- caspase-9 associated with HA immunoprecipitates by Western blotting (caspase-9 [1]): did not contain associated proform or active caspase-9 bands
- caspase-9 associated with HA immunoprecipitates by Western blotting (caspase-9 [2]): presence of associated ˜46 kDa proform caspase-9
